From PubChem BioAssay (NCI)
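Values below derive from 48-hour exposures of cells grown in 96-well plates, with endpoints linearly interpolated between the two concentrations bracketing the appropriate inhibition level. Definition used: TGI = concentration required for complete inhibition of growth.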

Experiments:
Experiment in all cases: NCI-60 cell line screen, 48 h
HT29 colon = system: HT29 colon
OVCAR-8 ovarian = system: OVCAR-8 ovarian
MDA-MB-435 = system: MDA-MB-435
NCI/ADR-RES ovarian = system: NCI/ADR-RES ovarian
NCI-H226 lung = system: NCI-H226 lung
SK-OV-3 ovarian = system: SK-OV-3 ovarian
HOP-92 NSCLC = system: HOP-92 NSCLC
OVCAR-4 ovarian = system: OVCAR-4 ovarian
OVCAR-3 ovarian = system: OVCAR-3 ovarian
HCT-116 colon = system: HCT-116 colon

Structure (SMILES) | TGI (HT29 colon) | TGI (OVCAR-8 ovarian) | TGI (MDA-MB-435) | TGI (NCI/ADR-RES ovarian) | TGI (NCI-H226 lung) | TGI (SK-OV-3 ovarian) | TGI (HOP-92 NSCLC) | TGI (OVCAR-4 ovarian) | TGI (OVCAR-3 ovarian) | TGI (HCT-116 colon)
COc1cc2nc(-c3cccs3)nc(Nc3ccccc3C(=O)NN)c2cc1OC | > 100 µM | > 100 µM | > 100 µM | > 100 µM | > 100 µM | > 100 µM | > 100 µM | > 100 µM | > 100 µM | > 100 µM
O=C(CSc1nc2ccc(I)cc2c(=O)n1Cc1ccccc1)Nc1ccccc1 | > 100 µM | 30 µM | > 100 µM | 93.2 µM | 44.5 µM | 46.4 µM | 75 µM | > 100 µM | 40.4 µM | > 100 µM
O=C1CCCC1CC(CN1CCOCC1)Sc1nnnn1-c1ccccc1 (stereo not given) | > 100 µM | > 100 µM | > 100 µM | > 100 µM | > 100 µM | > 100 µM | > 100 µM | > 100 µM | > 100 µM | > 100 µM
C[Si](C)(C)OC1(C#N)c2ccccc2CCCC12CCCC2 (stereo not given) | > 100 µM | > 100 µM | > 100 µM | > 100 µM | > 100 µM | > 100 µM | 89.9 µM | > 100 µM | > 100 µM | > 100 µM
CSc1nnnc2ccccc12 | > 100 µM | > 100 µM | > 100 µM | > 100 µM | > 100 µM | > 100 µM | > 100 µM | > 100 µM | > 100 µM | > 100 µM
O=C(CCCCCNC(=O)c1ccc(Cl)cc1)NO | > 100 µM | 86.8 µM | 31.3 µM | 5.07 µM | 71.2 µM | 41 µM | 11.1 µM | > 100 µM | 13 µM | 10.7 µM
Cc1cc2nc3c(C#N)c(C)c(CCCl)c(Cl)n3c2cc1C | 5.91 µM | 7.55 µM | 4.92 µM | 21.5 µM | 8.17 µM | > 56.6 µM | 4.76 µM | 16.6 µM | 3.56 µM | 3.06 µM
O=S(=O)(O)c1ccc(O)c(N=Nc2c(O)ccc3ccccc23)c1 | > 100 µM | > 100 µM | > 100 µM | > 100 µM | > 100 µM | > 100 µM | > 100 µM | > 100 µM | > 100 µM | > 100 µM
COc1cc(C2c3cccc4cccc(c34)C3CCC(=O)N32)cc(OC)c1O (stereo not given) | > 50 µM | > 50 µM | > 50 µM | > 50 µM | > 50 µM | > 50 µM | > 50 µM | > 50 µM | > 50 µM | > 50 µM
C=CC(=O)N1C/C(=C\c2ccc(OC)cc2)C(=O)/C(=C/c2ccc(OC)cc2)C1 | 2.88 µM | > 24.2 µM | 7.76 µM | > 31 µM | 4.6 µM | 8.39 µM | 27 µM | 13.4 µM | 5.67 µM | 0.686 µM
NC1(c2cc3ccccc3s2)CCCCCC1 | 29.3 µM | 35.8 µM | 29.7 µM | 33.7 µM | 38.4 µM | 31.2 µM | 30.5 µM | 27.7 µM | 29.2 µM | 29.5 µM
CC1CN(c2cc3c(cc2F)c(=O)c(C(=O)O)cn3-c2ccc(N3CCN(C)CC3)cn2)CC(C)N1 (stereo not given) | > 100 µM | > 100 µM | > 100 µM | > 100 µM | > 100 µM | > 100 µM | > 100 µM | > 100 µM | > 100 µM | > 100 µM
CCCCCCc1ccc(CCCCCCCC(=O)O)o1 | > 100 µM | > 100 µM | > 100 µM | > 100 µM | > 100 µM | > 100 µM | > 100 µM | > 100 µM | > 100 µM | > 100 µM
C=C1c2c(n(S(=O)(=O)c3ccccc3)c3ccccc23)[C@@]2(C(=O)OC)CC3C=CC2N1C3 | > 100 µM | > 100 µM | > 100 µM | > 100 µM | > 100 µM | > 100 µM | > 100 µM | > 100 µM | > 100 µM | > 100 µM
Clc1nc2nc(N3CCNCC3)nc(N3CCCC3)c2[nH]1 | 34.2 µM | 30.3 µM | 34.5 µM | > 100 µM | > 100 µM | 37.2 µM | 37.2 µM | 35 µM | 33.9 µM | 29.7 µM
[N-]=[N+]=Nc1cc(=O)[nH]c2ccccc12 | > 100 µM | > 100 µM | > 100 µM | > 100 µM | > 100 µM | > 100 µM | > 100 µM | > 100 µM | > 100 µM | > 100 µM
COC1C(O)C(C)OC(O[C@H]2CC[C@@]3(C)C(CC[C@@H]4[C@@H]3CC[C@]3(C)[C@@H](C(C)OC5OC(CO)C(O)C(O)C5O)CC[C@]43O)C2)C1O (stereo not given in full) | > 25 µM | > 25 µM | > 25 µM | > 25 µM | > 25 µM | > 25 µM | > 25 µM | > 25 µM | > 25 µM | > 25 µM
COC(=O)N[C@@H]1C[C@H]2CC[C@]1(O[Si](C(C)C)(C(C)C)C(C)C)C(=O)C2 | 47.8 µM | 63.4 µM | 41.6 µM | 35.4 µM | 33 µM | 46.5 µM | 70.6 µM | 33.8 µM | 39.7 µM | > 100 µM
COC1(OC)CC(CO)(COc2cc(Cl)nc(N)n2)C1 | > 100 µM | > 100 µM | > 100 µM | > 100 µM | > 100 µM | > 100 µM | > 100 µM | > 100 µM | > 100 µM | > 100 µM
Cc1cnc2c(c1)C(=O)N(c1ccc(Oc3ccccc3)cc1)S2(=O)=O | > 100 µM | > 100 µM | > 100 µM | > 100 µM | > 100 µM | > 100 µM | > 100 µM | > 100 µM | > 100 µM | > 100 µM
CC(C)(C)OC(=O)N1C(=O)C2CCCC21 (stereo not given) | > 100 µM | > 100 µM | > 100 µM | > 100 µM | > 100 µM | > 100 µM | > 100 µM | > 100 µM | > 100 µM | > 100 µM
N=C1C=CC(=C(c2ccc(N)cc2)c2ccc(N)cc2)C=C1 | 14.3 µM | 15.9 µM | 19.7 µM | 49.3 µM | 18.2 µM | 36.2 µM | 12.7 µM | 52.4 µM | 25.2 µM | 13.9 µM
CC(C)OC1=C(CC2(C)OCCO2)C(=O)C12OCCO2 | > 100 µM | > 100 µM | > 100 µM | > 100 µM | > 100 µM | > 100 µM | > 100 µM | > 100 µM | > 100 µM | > 100 µM
CCOc1ccc2c(c1)C(/C(C(Cl)=C(Cl)Cl)=[N+](/[O-])OC(=O)c1ccccc1)=N2 | > 100 µM | > 100 µM | > 100 µM | > 100 µM | > 100 µM | > 100 µM | > 100 µM | > 100 µM | > 100 µM | > 100 µM
